Test results as given in patent publication US6723716B1, “7-acylamino-3-heteroarylthio-3-cephem carboxylic acid antibiotics and prodrugs thereof” (Essential Therapeutics, Inc., priority 1999, dated 2004).

Columns and labels:
[1] = test system: human serum proteins; assay: Serum binding determination by ultrafiltration/HPLC; assay type: in vitro ADME; settings: by HPLC
Experimental: (§1) The more accurate measurement of binding of selected cephalosporin compounds was performed using HPLC as described below.
(§2) 1. Serum is placed in a shaking water bath preheated to 37±2° C. for 5 to 10 minutes to heat serum to 37° C. Serum pH is measured and recorded, while serum is 37° C. using pH paper. Measurements are taken twice, 3 minutes apart. If the pH is not 7.4±0.4 then the pH is adjusted by blowing 5% CO2/95% O2 over the serum. After blowing for several minutes, serum is heated to 37° C. and measurements are taken twice, 3 minutes apart using pH paper to determine the pH. Store at 4° C. The serum is stable for 7 days. Always check the pH before each use.
(§3) 2. Before any centrifugation, the centrifuge temperature must be adjusted to 25±2° C. Preheat the centrifuge by spinning for 45 minutes at the same speed to be used in the assay (1900 g) with two tubes of water in the rotor and the temperature set to 25° C. When the centrifuge stops immediately check the temperature of the tubes of water with a calibrated thermometer. The temperature of the tubes of water must be 25±2° C. […] Continue spinning and measuring the temperature and adjusting the setting until the temperature is 25±2° C.
(§4) 3. Prepare blank ultrafiltrate by pipetting blank pH 7.4 serum into an Amicon Centrifree Micropartition devices, centrifuge: fixed angle rotor, 1900 g, 25° C. for 20 minutes. Heat ultrafiltrate in a shaking water bath preheated to 37° C. Measure ultrafiltrate pH and adjust to the pH of the serum (7.4±0.2).
(§5) 4. Pipette 190 ul of blank ultrafiltrate into a set of labeled 1.7 mL polypropylene microfuge tubes for 3 of each level. Pipette 10 μL of the appropriate standard stock 50, 200, 1000 μg/mL to make standards 2.5, 10, and 50 μg/mL respectively. Vortex each tube well. One set of the standard samples are mixed 1:1 with 0.2 M acetic acid and injected onto the HPLC (MSTD). These samples are the membrane standards and will be used to compare to the other standards. Pipette 190 ul of ultrafiltrate and spike with 10 ul of whatever solution (e.g. water) the standards are prepared in to make the zero standard.
(§6) 5. Pipette 475 μL of blank heated pH 7.4 serum into a set of labeled 1.7 mL polypropylene microfuge tubes for 2 of each (Serum A and Serum B). Pipette 25 μL of the 1000 μg/mL standard stock into each tube, vortex each tube well to make serum standard 50 μg/mL. Remove 100 μL of serum and deproteinate with 200 μL 4% TCA while vortexing to make serum time 0 (serum 50, T0). Place serum tubes in a shaking water bath at 37° C. for 10 minutes. Pipet 100 μL of serum out and deproteinate with 200 μL 4% TCA, to make serum time 10 min (serum 50, T10). Pipet 200 ul serum standard 50 μg/mL into an ultrafiltration device, which is not treated with TCA, to determine free drug in samples (Rat Serum 50).
(§7) 6. Transfer serum and standard samples to labeled Amicon Centrifree Micropartition filters, and centrifuge: 1900 g, 25° C. for 10 minutes. The extracted serum samples (T0 and T10) are spun down and supernatant is loaded into HPLC vials.
(§8) 7. 100 μL of ultrafiltrate sample and 100 μL of 0.2 M acetic acid were mixed together to stabilize the compound in ultrafiltrate.
(§9) 8. Transfer entire stabilized ultrafiltrate solution to a labeled autoinjector HPLC vial cap with Teflon septa, and inject on HPLC.
(§10) Peak height or area is used in a weighted linear regression.

[2] = test system: S. aureus ATCC 13709 (Smith diffuse); assay: Murine lethal bacteremic peritonitis (septicemia) efficacy; assay type: in vivo, mice
Experimental: 10 mice/group were injected intraperitoneally with 2.98×10^7 cfu S. aureus ATCC 13709 (Smith diffuse) and treated at 0 and 2 hrs post-challenge with serial two-fold doses of new cephalosporin antibiotic, imipenem and vancomycin subcutaneously in order to determine the ED50. Male Swiss-Webster mice weighing originally 24.2-26.1 g were obtained from Charles Rivers Labs, Hollister, Calif. Mice were housed 10 per cage and given free access to water and mouse chow.
Staphylococcus aureus ATCC 13709 (Smith diffuse) was grown overnight at 37° C. in Brain-heart Infusion broth (BHIB). The following morning, it was subcultured to fresh BHIB and incubated for 4-5 h at 37° C. The log-phase growth cells were washed once with physiological saline and adjusted to the desired concentration by correlation of absorbency at OD 600 nm with predetermined plate counts (NCCLS, 1994). The cell suspension was mixed with an equal volume of sterile 14% hog-gastric mucin (2). Inoculum was kept in an ice bath until used (<1 h).
Mice were challenged via an injection of 0.5 mL bacterial suspension intraperitoneally. The bacterial challenge was 2.98×10^7 cfu/mouse.
Imipenem (Primaxin IV; Lot 7294A), vancomycin (Vancocin; Lot 8MU60W), and new cephalosporin antibiotic were prepared by serial two-fold dilutions to concentrations of 0.078-0.005 mg/mL, 1.2-0.075 mg/mL, 0.3-0.02 mg/mL, 0.3-0.02 mg/mL and 0.3-0.02 mg/mL respectively in sterile water (1). All antibiotics were administered subcutaneously in 0.1 mL volumes at 0 and 2 hours post-challenge. Concentrations of all compounds are based on the weight of the bioactive ingredients.
The 50% effective dose (ED50) was calculated by the probit method (3) utilizing a program entitled Probit (Nycomed-Salutar).

[3] = test system: S. aureus ATCC29213; assay: Human serum binding effect: MIC with and without human serum; assay type: cell-based, Staphylococcus aureus; settings: 1:1 human serum:MHB
Experimental: The approximate measurement of the degree of binding of the compound to human serum proteins can be achieved by determination of the effect of the addition of human serum to the medium in which the MIC values against a selected bacterial strain is determined. The ratio of the MIC value obtained in presence of added human serum to the MIC value determined without serum addition was used as a measure of serum binding and the results of such determination are presented below in Table 2.
In addition to the standard MIC determination described above, the staphylococcal strain ATCC29213 is also tested in a ratio 1:1, human serum:MHB to obtain a preliminary estimate of the bioactivity of test compounds in serum: The assay was performed in Human Serum and Mueller-Hinton Broth (HSMHB) with a final bacterial inoculum of 1×10^6 CFU/mL (from an early-log phase culture) and a final volume of 100 μL. Control drugs, including imipenem, vancomycin, dicloxacillin, and new compounds were prepared in double-concentrated Mueller-Hinton broth at a concentration equivalent to 4-fold the desired final concentration. Dilution of compounds were prepared directly in the plates by serial 2-fold dilution in double-concentrated Mueller-Hinton using a multichannel pipette. Positive and negative growth controls were included in each plate. […] The inoculum was prepared by diluting the early log-phase (1 h) culture 1:100 with fresh double-concentrated Mueller-Hinton broth. A volume of 25 μL of the inoculum was added to each well. […] The exact inoculum was determined by applying 10 μl of 10-fold serial dilution of the bacterial suspension on TSA. After overnight incubation at 35° C., colony forming units were manually counted.

[4] = In vitro stability of compounds in rat serum; assay type: in vitro ADME
Experimental: In general, compounds from the class of 7-acylamino-3-heteroarylthio-3-cephem carboxylic acids have higher chemical reactivity and lower stability towards chemical or enzymatic decomposition than most typical cephalosporins. […] Results shown in Table 2 represent percentage loss of the initial amount of cephalosporin compound upon 60 min incubation in rat serum.
Procedure for measuring degree of degradation of cephalosporin compounds in rat serum was as follows:
Fresh control rat serum (heparinized and stored frozen) is preincubated at 37° C. for 15 min in a shaking water bath. pH is measured using test strips. 25 μL of a 2 mg/mL solution cephalosporin compound (in water) of is then added to each matrix to make 1000 μL. Solutions were incubated at 37° C. 100 ul of solution was taken out at time=0, 15, 30, and 60 min post dose and added 200 μL 4% trichloroacetic acid, vortexed, and centrifuged for 10 min at 14,000 rpm in an Eppendorf microcentrifuge. 25 μL of each supernatant was injected onto HPLC. Experiment was repeated using 25 μL of a 0.2 mg/mL cephalosporin compound. Degradation is measured as the percentage of HPLC peak area at time t relative to peak area at time 0.
HPLC conditions: Beckman Ultrasphere C18 column. 5 u. 4.6 mm×25 cm. 1 mL/min of 95% 0.1 M ammonium acetate, pH 6, 5% ACN going to 75% buffer/organic over 20 min. UV monitored at 254 and 280 nm.

[5] = test system: rat serum proteins; assay: Serum binding determination by ultrafiltration/HPLC; assay type: in vitro ADME; settings: by HPLC
Experimental: as §1, §2, §3, §4, §5, §6, §7, §8, §9, §10

[6] = test system: rhesus serum proteins; assay: as above; assay type: in vitro ADME; settings: by HPLC
Experimental: as §1, §2, §3, §4, §5, §6, §7, §8, §9, §10

[7] = Staphylococcus aureus, ATCC13709, sc, read-out: Efficacy in murine septicemia % survival

Row | Structure (SMILES) | Serum Binding human (% of compound bound to serum) [1] [%] | responders at 0.625 mg/kg [2, 7] [%] | responders at 1.25 mg/kg [2, 7] [%] | responders at 2.5 mg/kg [2, 7] [%] | Efficacy in murine septicemia % survival ([2]; dose 5 mg/kg s.c. at 0 and 2 h post-challenge) | Human serum binding effect (ratio of MIC value determined with and without human serum added) [3] | stability of compounds in rat serum ([4]; Table 2 data) | Stability in rat serum (% loss) ([4]; after 60 min exposure to rat serum, 37° C., HPLC) [%] | Serum Binding rat (% of compound bound to serum) [5] [%] | Serum Binding rhesus (% of compound bound to serum) [6] [%]
1 | CN[C@H](CC(C)C)C(=O)N[C@H]1C(=O)N[C@@H](CC(N)=O)C(=O)N[C@H]2C(=O)N[C@H]3C(=O)N[C@H](C(=O)N[C@H](C(=O)O)c4cc(O)cc(O)c4-c4cc3ccc4O)[C@H](O)c3ccc(c(Cl)c3)Oc3cc2cc(c3O[C@@H]2O[C@H](CO)[C@@H](O)[C@H](O)[C@H]2O[C@H]2C[C@](C)(N)[C@H](O)[C@H](C)O2)Oc2ccc(cc2Cl)[C@H]1O [Van., Vancomycin, reference compound] | 55 | 10 | 20 | 60 | 5/100% | 2 | – | – | – | –
2 | N=C(N)NCCSCc1ncccc1SC1=C(C(=O)O)N2C(=O)[C@@H](NC(=O)/C(=N\O)c3nc(N)sc3Cl)[C@H]2SC1 [Cmpd 15, (7R)-7-[(Z)-2-(2-amino-5-chlorothiazol-4-yl)-2-(hydroxyimino)acetamido]-3-[2-(2-guanidinoethylthiomethyl)pyrid-3-ylthio]-3-cephem-4-carboxylic acid] | 83 | – | – | – | – | 2 | improved stability | 38 | 76 | 88
